In PubChem BioAssay AID330 (DTP/NCI, 2004):
Values joined by “and” are separate entries in the source; they are usually repeats but may differ in a detail not shown here. Identical values can stand only once. Toxic doses and inconclusive results are not listed.

Test system: P388 leukemia ip, CD2F1 mice, survival T/C
Assay: NCI In Vivo Anticancer Drug Screen. Data for tumor model P388 Leukemia (intraperitoneal) in CD2F1 (CDF1) mice
Conditions: endpoint: median survival time, higher = longer survival
Method in brief: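 Mice carrying the transplanted tumor received test compound or vehicle. Survival was recorded in each group, and the value is the treated-group measurement divided by that of the vehicle-treated control group.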

[1] = dose: 50.0 mg/kg/injection, schedule: Q01DX009 (ip), vehicle: saline with Tween-80
[2] = dose: 50.0 mg/kg/injection, schedule: Q01DX005 (ip), vehicle: Klucel (hydroxypropylcellulose) (HPC)
[3] = dose: 100.0 mg/kg/injection, schedule: Q01DX005 (ip), vehicle: Klucel (hydroxypropylcellulose) (HPC)
[4] = dose: 200.0 mg/kg/injection, schedule: Q01DX005 (ip), vehicle: Klucel (hydroxypropylcellulose) (HPC)

## C[n+]1c(-c2cccc(OCCCCCCCCOc3cccc(-c4c5cc(N)ccc5c5ccc(N)cc5[n+]4C)c3)c2)c2cc(N)ccc2c2ccc(N)cc21
dose: 0.09 mg/kg/injection, schedule: Q01DX009 (ip), vehicle: water
  T/C: 163 % of control
dose: 0.19 mg/kg/injection, schedule: Q01DX009 (ip), vehicle: water
  T/C: 154 % of control
dose: 0.38 mg/kg/injection, schedule: Q01DX009 (ip), vehicle: water
  T/C: 151 % of control
dose: 0.39 mg/kg/injection, schedule: Q01DX009 (ip), vehicle: water
  T/C: 170 % of control
dose: 0.75 mg/kg/injection, schedule: Q01DX009 (ip), vehicle: water
  T/C: 150 % of control
dose: 0.78 mg/kg/injection, schedule: Q01DX009 (ip), vehicle: water
  T/C: 179 % of control
dose: 1.5 mg/kg/injection, schedule: Q01DX009 (ip), vehicle: water
  T/C: 91 % of control
dose: 1.56 mg/kg/injection, schedule: Q01DX009 (ip), vehicle: water
  T/C: 213 % of control

## O=[N+]([O-])C(Br)(CO)CO
dose: 3.12 mg/kg/injection, schedule: Q01DX009 (ip), vehicle: saline
  T/C: 100 % of control
dose: 6.25 mg/kg/injection, schedule: Q01DX009 (ip), vehicle: saline
  T/C: 103 % of control
dose: 12.5 mg/kg/injection, schedule: Q01DX009 (ip), vehicle: saline
  T/C: 114 % of control and 118 % of control

## CCc1ccc2c(c1)C(O)(c1ccccc1)c1ccccc1C2(O)c1ccccc1 (stereo not given)
[1]
  T/C: 95 % of control
dose: 100.0 mg/kg/injection, schedule: Q01DX009 (ip), vehicle: saline with Tween-80
  T/C: 94 % of control
dose: 200.0 mg/kg/injection, schedule: Q01DX009 (ip), vehicle: saline with Tween-80
  T/C: 93 % of control

## CCOc1ccc(C(C)c2cc3c(cc2OC)OCO3)cc1 (stereo not given)
dose: 15.0 mg/kg/injection, schedule: Q01DX005 (ip), vehicle: distilled water + Tween-80
  T/C: 102 % of control
dose: 25.0 mg/kg/injection, schedule: Q01DX005 (ip), vehicle: distilled water + Tween-80
  T/C: 100 % of control and 105 % of control (2×)
dose: 31.0 mg/kg/injection, schedule: Q01DX005 (ip), vehicle: distilled water + Tween-80
  T/C: 118 % of control
dose: 62.5 mg/kg/injection, schedule: Q01DX005 (ip), vehicle: distilled water + Tween-80
  T/C: 124 % of control
dose: 72.0 mg/kg/injection, schedule: Q01DX005 (ip), vehicle: distilled water + Tween-80
  T/C: 118 % of control and 119 % of control
dose: 120.0 mg/kg/injection, schedule: Q01DX005 (ip), vehicle: distilled water + Tween-80
  T/C: 112 % of control and 120 % of control
dose: 125.0 mg/kg/injection, schedule: Q01DX005 (ip), vehicle: distilled water + Tween-80
  T/C: 154 % of control

## O=C1CSCC(=O)OCCOCCOCCO1
dose: 100.0 mg/kg/injection, schedule: Q04DX003 (ip), vehicle: suspension in saline
  T/C: 104 % of control
dose: 200.0 mg/kg/injection, schedule: Q04DX003 (ip), vehicle: suspension in saline
  T/C: 101 % of control
dose: 400.0 mg/kg/injection, schedule: Q04DX003 (ip), vehicle: suspension in saline
  T/C: 101 % of control

## CCOC(=O)C(/C=N/NS(=O)(=O)c1ccc(C)cc1)c1ccccc1 (stereo not given)
dose: 100.0 mg/kg/injection, schedule: Q04DX002 (ip), vehicle: saline
  T/C: 96 % of control
dose: 200.0 mg/kg/injection, schedule: Q04DX002 (ip), vehicle: saline
  T/C: 94 % of control
dose: 400.0 mg/kg/injection, schedule: Q04DX002 (ip), vehicle: saline
  T/C: 97 % of control

## C/C(=N\NC(=S)N1CCCCCC1)c1cc2ccccc2cn1
dose: 3.12 mg/kg/injection, schedule: Q01DX005 (ip), vehicle: distilled water + Tween-80 + alcohol
  T/C: 100 % of control
dose: 6.25 mg/kg/injection, schedule: Q01DX005 (ip), vehicle: Klucel (hydroxypropylcellulose) (HPC)
  T/C: 117 % of control
dose: 6.25 mg/kg/injection, schedule: Q01DX005 (ip), vehicle: distilled water + Tween-80 + alcohol
  T/C: 111 % of control
dose: 12.5 mg/kg/injection, schedule: Q01DX005 (ip), vehicle: Klucel (hydroxypropylcellulose) (HPC)
  T/C: 116 % of control
dose: 12.5 mg/kg/injection, schedule: Q01DX005 (ip), vehicle: distilled water + Tween-80 + alcohol
  T/C: 105 % of control
dose: 25.0 mg/kg/injection, schedule: Q01DX005 (ip), vehicle: Klucel (hydroxypropylcellulose) (HPC)
  T/C: 121 % of control
dose: 25.0 mg/kg/injection, schedule: Q01DX005 (ip), vehicle: distilled water + Tween-80 + alcohol
  T/C: 118 % of control

## N#CCc1csc2ccccc12
[2]
  T/C: 117 % of control
[3]
  T/C: 115 % of control
[4]
  T/C: 112 % of control

## COC(=O)C(C#N)=C(SC)SC
dose: 12.5 mg/kg/injection, schedule: Q01DX009 (ip), vehicle: saline with Tween-80
  T/C: 112 % of control
dose: 25.0 mg/kg/injection, schedule: Q01DX009 (ip), vehicle: saline with Tween-80
  T/C: 116 % of control
[1]
  T/C: 103 % of control and 91 % of control

## CSC(=S)n1nc(C)c(N=Nc2cccc(C)c2C)c1C
dose: 100.0 mg/kg/injection, schedule: Q04DX002 (ip), vehicle: Klucel (hydroxypropylcellulose) (HPC)
  T/C: 96 % of control
dose: 200.0 mg/kg/injection, schedule: Q04DX002 (ip), vehicle: Klucel (hydroxypropylcellulose) (HPC)
  T/C: 96 % of control
dose: 400.0 mg/kg/injection, schedule: Q04DX002 (ip), vehicle: Klucel (hydroxypropylcellulose) (HPC)
  T/C: 100 % of control

## CN(/N=C\c1ccccc1)C(N)=S
[2]
  T/C: 105 % of control
[3]
  T/C: 111 % of control
[4]
  T/C: 101 % of control

## Clc1cccc(Cl)c1NC1=NCCS1
dose: 50.0 mg/kg/injection, schedule: Q01DX009 (ip), vehicle: Klucel (hydroxypropylcellulose) (HPC)
  T/C: 92 % of control
dose: 100.0 mg/kg/injection, schedule: Q01DX009 (ip), vehicle: Klucel (hydroxypropylcellulose) (HPC)
  T/C: 101 % of control

## Cn1c(=O)[nH]c2nncnc2c1=O
dose: 2.0 mg/kg/injection, schedule: Q01DX009 (ip), vehicle: water
  T/C: 101 % of control
dose: 4.0 mg/kg/injection, schedule: Q01DX009 (ip), vehicle: water
  T/C: 100 % of control
dose: 8.0 mg/kg/injection, schedule: Q01DX009 (ip), vehicle: water
  T/C: 104 % of control
dose: 12.5 mg/kg/injection, schedule: Q01DX009 (ip), vehicle: water
  T/C: 99 % of control
dose: 16.0 mg/kg/injection, schedule: Q01DX009 (ip), vehicle: water
  T/C: 101 % of control
dose: 25.0 mg/kg/injection, schedule: Q01DX009 (ip), vehicle: water
  T/C: 117 % of control
dose: 32.0 mg/kg/injection, schedule: Q01DX009 (ip), vehicle: water
  T/C: 104 % of control
dose: 64.0 mg/kg/injection, schedule: Q01DX009 (ip), vehicle: water
  T/C: 123 % of control
dose: 375.0 micrograms/kg/injection, schedule: Q01DX009 (ip), vehicle: saline
  T/C: 97 % of control
dose: 750.0 micrograms/kg/injection, schedule: Q01DX009 (ip), vehicle: saline
  T/C: 100 % of control
dose: 1500.0 micrograms/kg/injection, schedule: Q01DX009 (ip), vehicle: saline
  T/C: 91 % of control
dose: 3000.0 micrograms/kg/injection, schedule: Q01DX009 (ip), vehicle: saline
  T/C: 100 % of control

## O=[N+]([O-])c1ccccc1N=Nc1c(O)sc2ccccc12
[2]
  T/C: 98 % of control
[3]
  T/C: 96 % of control
[4]
  T/C: 91 % of control

## O=C(c1ccc(Cl)cc1)c1cnc2nc(-c3ccccc3)c(-c3ccccc3)nn12
dose: 6.25 mg/kg/injection, schedule: Q01DX005 (ip), vehicle: saline with Tween-80
  T/C: 97 % of control
dose: 12.5 mg/kg/injection, schedule: Q01DX005 (ip), vehicle: saline with Tween-80
  T/C: 98 % of control
dose: 25.0 mg/kg/injection, schedule: Q01DX005 (ip), vehicle: saline with Tween-80
  T/C: 97 % of control
dose: 50.0 mg/kg/injection, schedule: Q01DX005 (ip), vehicle: saline with Tween-80
  T/C: 103 % of control
dose: 100.0 mg/kg/injection, schedule: Q01DX005 (ip), vehicle: saline with Tween-80
  T/C: 113 % of control
dose: 200.0 mg/kg/injection, schedule: Q01DX005 (ip), vehicle: saline with Tween-80
  T/C: 115 % of control

## NC(=O)CC(=O)O
dose: 50.0 mg/kg/injection, schedule: Q01DX009 (ip), vehicle: saline
  T/C: 96 % of control
dose: 100.0 mg/kg/injection, schedule: Q01DX009 (ip), vehicle: saline
  T/C: 91 % of control
dose: 200.0 mg/kg/injection, schedule: Q01DX009 (ip), vehicle: saline
  T/C: 104 % of control

## O=C1/C(=C/c2ccccc2[N+](=O)[O-])COc2ccccc21
dose: 60.0 mg/kg/injection, schedule: Q01DX005 (ip), vehicle: saline with Tween-80
  T/C: 97 % of control
dose: 120.0 mg/kg/injection, schedule: Q01DX005 (ip), vehicle: saline with Tween-80
  T/C: 103 % of control
dose: 240.0 mg/kg/injection, schedule: Q01DX005 (ip), vehicle: saline with Tween-80
  T/C: 97 % of control
